According to patent US11986493B2 (University of Pittsburgh—Of the Commonwealth System of …, priority 2013, dated 2024):
Read-outs that look alike come from different tables or passages of the source.

Conditions: after inhalation
Description: Measurement was made on mixed venous blood using PCW pullback samples at baseline (pre-dose) and at the maximally tolerated dose.

Q: Which plasma nitrite concentration (45 mg dose) does the source give for `O=NO` [nitrite, sodium nitrite] here?
A: 5 to 7 µM

Q: What about the plasma nitrite concentration (90 mg dose) of the same compound?
A: 8 to 10 µM
